Measured values: patent US20220315616A1, “MANGANESE CHELATE ISOMERS” (GE Healthcare AS, priority 2019, published 2022)

What was measured:
[1] = Dissociation of manganese from the chelate in human serum (SEC with ICP-MS); assay type: in vitro ADME; details: for Percent dechelation in human serum: 37° C., protein bound manganese
Protocol: (§1) Stability of Mn Chelate-5 stereoisomers in human serum was assessed in vitro by monitoring transfer of Mn from the chelate to blood proteins by a method employing size exclusion chromatography combined with online detection of manganese containing species by ICP-MS.
The following method was used for measurement of dissociation of manganese from the manganese chelate in human serum.
To human serum obtained from clotted blood (Sigma-Aldrich, 1900 μL) was added an aqueous solution of the manganese chelate (2 mM, 100 μL). The mixture was incubated at 37° C. At specific time points aliquots of 200 μL of test sample were mixed with saline (400 μL) and analysed by size exclusion chromatography (metal-free HPLC equipped with a column with separation range 5000-500000 Dalton) combined with online detection of manganese containing species by ICP-SF-MS. Percent dechelation was measured as area percent of the high molecular weight (protein) fraction. At regular intervals EDTA solution was run through the system to ensure low levels of background metal ions. Human serum was incubated with Mn(II)acetate and injected to identify the position of Mn-binding components in the high molecular weight region of the chromatogram.
Four different stereoisomers of Mn Chelate-5 (RR, SS, SR and RS) were analysed in this assay.

[2] = r1 and r2 relaxivities (Brüker mq60 relaxometer); assay type: physicochemical; details: in human serum at 60 MHz and 37° C.
Description: General method for measurement of r1 and r2 relaxivities. […] […] Linear fits (R^2>0.99 in all cases) of 1/T1 or 1/T2 as a function of Mn concentration gave r1 or r2 values respectively.

[3] = Trans-metalation with Zn (HPLC, % Mn chelate remaining); assay type: physicochemical; details: 2 mM chelate, 200 mM ZnCl2 in 15 mM ammonium formate, pH=4, 40° C.
Protocol: as §1
Method for assessing trans-metalation with Zn. Mn chelates were dissolved in aqueous solutions containing 200 mM ZnCl2 and 15 mM ammonium formate at either pH=4 to give a Mn chelate concentration of approx. 2 mM. The resulting solutions were incubated at 40° C. with mixing and aliquots were periodically analyzed by HPLC. The percent Mn containing chelate remaining in the solution was measured by integration at 265 nm.

[4] = Mn-54 biodistribution study in rats; assay type: in vivo, Sprague-Dawley rats; details: rat, 7 d post injection; for % ID ± standard deviation, Brain: 0.62 mmol Mn/kg with ~30 μCi 54Mn labeled chelate, n = 4
Protocol: In vivo stability of the different isomer pools was assessed via a ^54Mn radioactive biodistribution as Mn released in vivo is known to be retained in brain, bone and liver. The amount of Mn released in vivo was assessed for Mn Chelate-5 synthesized without stereochemical control, a 1:1 mix of (R,R)-Mn Chelate-5 and (S,S)-Mn Chelate 5 isomers, and (R,S)-Mn Chelate-5 isomer pool B using ^54Mn labeled material added to non-radiolabeled material. […] Rats were dosed with 0.62 mmol Mn Chelate-5/kg containing ˜30 μCi ^54Mn Chelate-5. The animals were sacrificed at 7 d post injection, organs of interest were collected, and the ^54Mn remaining in the organs was measured using a gamma counter. FIG. 4 is a plot showing % ID (injected dose)/organ 7 d post injection of a 0.62 mmol Mn Chelate-5/kg dose containing ˜[…] ^54Mn Chelate-5. Bars containing hashed lines represent % ID/organ at or below the limit of detection for the study. The results of statistical comparison of the % ID for each organ are summarized as p-values using either a one-way ANOVA Games-Howell comparison or a 2-way t-test as appropriate are shown for each organ.
Method for preparation of Mn-54 labeled chelate for biodistribution studies. To a 3 mL glass vial fitted with a magnetic stir bar was added the manganese containing chelate (1 mg) and 1.0 M ammonium formate, pH=4 (0.5 mL). ^54MnCl2 in 1.0 M HCl (˜500 μCi) was then added and the resulting solution was heated at 40° C. for 16 h. The resulting solution was purified via preparative HPLC to remove unchelated Mn. The radioactive fraction was collected and evaporated to dryness in vacuo. The radioactive residue was taken up in water containing non-radioactive Mn chelate (0.310 M) such that ˜30 μCi of radioactivity was formulated in a dose of 0.620 mmol Mn/kg with an injection volume of 2 mL/kg.
General method for Mn-54 biodistribution studies. […] 7 days post injection, the animals were sacrificed by CO2 immersion and organs and tissues of interest were removed and assayed for radioactivity using a Wizard 2480 gamma counter (Table 2).

Row | Compound | Percent dechelation in human serum ([1]; incubation time 3 h) | Percent dechelation in human serum ([1]; incubation time 24 h) | Percent dechelation in human serum ([1]; incubation time 49 h) | r1 relaxivity [2] | Rate of transmetallation with Zn (among Mn Chelate-5 stereoisomers) [3] | Mn remaining in vivo in brain and bone vs 1:1 (S,S)/(R,R) mixture or Mn Chelate-5 without stereochemical control [4] | % ID ± standard deviation, Brain [4] | Stability in human serum (percent dechelation curves, comparison of isomers) ([1]; 2 days total incubation at 37 °C)
1 | CN1CCN2Cc3cccc(n3)CN(CC1)[C@H](CCC(=O)NC[C@H](O)[C@@H](O)[C@H](O)[C@H](O)CO)C(=O)[O][Mn][O]C(=O)[C@H]2CCC(=O)NC[C@H](O)[C@@H](O)[C@H](O)[C@H](O)CO [(R,R)-Mn Chelate-5] | 0.6% | 2.7% | 3.6% |  |  |  |  | 
2 | CN1CCN2Cc3cccc(n3)CN(CC1)[C@@H](CCC(=O)NC[C@H](O)[C@@H](O)[C@H](O)[C@H](O)CO)C(=O)[O][Mn][O]C(=O)[C@H]2CCC(=O)NC[C@H](O)[C@@H](O)[C@H](O)[C@H](O)CO [(R,S)-Mn Chelate-5] | 0.04% | 0.11% | 0.16% | 6.0 mM⁻¹ s⁻¹ | significantly slower rate of transmetallation | significantly less Mn remaining in vivo | 0.002 ± 0.0004% ID | most stable
3 | CN1CCN2Cc3cccc(n3)CN(CC1)[C@@H](CCC(=O)NC[C@H](O)[C@@H](O)[C@H](O)[C@H](O)CO)C(=O)[O][Mn][O]C(=O)[C@@H]2CCC(=O)NC[C@H](O)[C@@H](O)[C@H](O)[C@H](O)CO [(S,S)-Mn Chelate-5] | 0.3% | 1.6% | 2.4% |  |  |  |  | 
4 | CN1CCN2Cc3cccc(n3)CN(CC1)C(CCC(=O)NC[C@H](O)[C@@H](O)[C@H](O)[C@H](O)CO)C(=O)[O][Mn][O]C(=O)C2CCC(=O)NC[C@H](O)[C@@H](O)[C@H](O)[C@H](O)CO (stereo partly shown) [Mn Chelate-5] |  |  |  | 6.0 mM⁻¹ s⁻¹ |  |  | 0.005 ± 0.0004% ID | 
